Earlier results in patent US20110196036A1, “USE OF BETAINE” (DANISCO A/S, priority 2008, published 2011).

Settings: pure form; water and lower alcohols

For `C[N+](C)(C)CC(=O)[O-]` [betaine, trimethylglycine], the solubility is given as “readily soluble in water and lower alcohols”.
